Experimental data from patent publication US10517889B2, “Modulators of SMAD7 expression” (Ionis Pharmaceuticals, Inc., priority 2017, dated 2019).
Strand notation (5' to 3'): a small letter for the sugar, then the base; units joined by * are phosphorothioate-linked, units joined directly phosphodiester-linked; [ ] holds rarer units or linkages, { } end groups; capitals alone tell only the bases. k = constrained ethyl (cEt); [5mC] = 5-methylcytosine; d = 2'-deoxy (DNA)

Tested on: human SMAD7 mRNA
Test: Antisense inhibition of human SMAD7 mRNA expression in Hep3B cells by 3-10-3 cEt gapmers, 10,000 nM, electroporation (Example 2)
Format: cell-based
Details: Hep3B cells, electroporation with 10,000 nM antisense oligonucleotide, approximately 24 hours; for % Inhibition: SMAD7 mRNA by RT-PCR (RTS5062), relative to untreated control cells; for % inhibition of SMAD7 mRNA expression: primer probe set RTS5062, relative to untreated control cells
Method in brief: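 qRT-PCR (RTS5062) of SMAD7 mRNA, normalised to RIBOGREEN total RNA, gave percent inhibition relative to untreated controls. Hep3B cells at 20,000 per well received 10,000 nM oligonucleotide by electroporation, with ~24 h treatment.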

Substance | % Inhibition [%] | % inhibition of SMAD7 mRNA expression [%]
798682 (antisense kG*k[5mC]*kT*dA*dA*dG*dG*dA*dG*d[5mC]*dG*dA*dA*k[5mC]*kA*kT) [compound 798682] | 60 | –
798683 (antisense kG*k[5mC]*k[5mC]*dT*dG*d[5mC]*dT*dA*dA*dG*dG*dA*dG*k[5mC]*kG*kA) [compound 798683] | 51 | –
798684 (antisense k[5mC]*kG*kT*dT*dT*dG*d[5mC]*d[5mC]*dT*dG*d[5mC]*dT*dA*kA*kG*kG) [compound 798684] | 51 | –
798685 (antisense kG*kA*kG*dG*d[5mC]*dG*dA*dG*dG*dA*dG*dA*dA*kA*kA*kG) [compound 798685] | – | 58
798688 (antisense kG*kT*k[5mC]*d[5mC]*dT*dG*dA*dA*d[5mC]*dA*dT*dG*d[5mC]*kG*kG*kG) [compound 798688] | – | 68
798689 (antisense kG*k[5mC]*k[5mC]*dG*dG*dA*d[5mC]*dG*dA*dG*d[5mC]*dG*d[5mC]*kA*kG*kA) [compound 798689] | – | 33
798690 (antisense kG*kG*k[5mC]*dT*d[5mC]*d[5mC]*dT*d[5mC]*d[5mC]*dA*dG*dA*dG*kA*k[5mC]*kG) [compound 798690] | – | 29
798691 (antisense k[5mC]*kG*k[5mC]*dA*d[5mC]*dG*dG*d[5mC]*dT*d[5mC]*d[5mC]*dT*d[5mC]*k[5mC]*kA*kG) [compound 798691] | – | 42
798692 (antisense kG*kG*kG*d[5mC]*dG*d[5mC]*dA*d[5mC]*dG*dG*d[5mC]*dT*d[5mC]*k[5mC]*kT*k[5mC]) [compound 798692] | – | 48
798693 (antisense kG*k[5mC]*k[5mC]*dG*dG*dG*d[5mC]*dG*d[5mC]*dA*d[5mC]*dG*dG*k[5mC]*kT*k[5mC]) [compound 798693] | 0 | –
798694 (antisense kG*kT*k[5mC]*d[5mC]*dT*d[5mC]*dG*d[5mC]*d[5mC]*dG*d[5mC]*d[5mC]*dG*kG*kG*k[5mC]) [compound 798694] | 0 | –
798695 (antisense kT*kG*k[5mC]*dG*d[5mC]*d[5mC]*d[5mC]*dT*d[5mC]*d[5mC]*dT*d[5mC]*d[5mC]*kT*k[5mC]*kG) [compound 798695] | 35 | –
798697 (antisense kA*k[5mC]*k[5mC]*dT*d[5mC]*d[5mC]*d[5mC]*d[5mC]*d[5mC]*dT*dG*d[5mC]*dG*k[5mC]*k[5mC]*k[5mC]) [compound 798697] | 23 | –
798698 (antisense kA*kG*k[5mC]*dT*d[5mC]*dG*d[5mC]*d[5mC]*dT*d[5mC]*d[5mC]*dT*d[5mC]*k[5mC]*kT*k[5mC]) [compound 798698] | 57 | –
798699 (antisense k[5mC]*kG*k[5mC]*dA*dG*d[5mC]*dT*d[5mC]*dG*d[5mC]*d[5mC]*dT*d[5mC]*k[5mC]*kT*k[5mC]) [compound 798699] | 51 | –
798700 (antisense k[5mC]*k[5mC]*k[5mC]*d[5mC]*dG*d[5mC]*dA*dG*d[5mC]*dT*d[5mC]*dG*d[5mC]*k[5mC]*kT*k[5mC]) [compound 798700] | 52 | –
798701 (antisense k[5mC]*kT*kT*d[5mC]*dT*d[5mC]*d[5mC]*d[5mC]*d[5mC]*dG*d[5mC]*dA*dG*k[5mC]*kT*k[5mC]) [compound 798701] | 23 | –
798702 (antisense k[5mC]*k[5mC]*k[5mC]*d[5mC]*dT*dT*d[5mC]*dT*d[5mC]*d[5mC]*d[5mC]*d[5mC]*dG*k[5mC]*kA*kG) [compound 798702] | 45 | –
798703 (antisense kG*kT*k[5mC]*d[5mC]*dG*dT*d[5mC]*dG*d[5mC]*d[5mC]*d[5mC]*d[5mC]*dT*kT*k[5mC]*kT) [compound 798703] | – | 68
798704 (antisense k[5mC]*kT*kG*dT*d[5mC]*d[5mC]*dG*dT*d[5mC]*dG*d[5mC]*d[5mC]*d[5mC]*k[5mC]*kT*kT) [compound 798704] | – | 61
798705 (antisense kG*kG*k[5mC]*dT*dG*dT*d[5mC]*d[5mC]*dG*dT*d[5mC]*dG*d[5mC]*k[5mC]*k[5mC]*k[5mC]) [compound 798705] | – | 41
798706 (antisense k[5mC]*kG*kG*d[5mC]*dT*dG*dT*d[5mC]*d[5mC]*dG*dT*d[5mC]*dG*k[5mC]*k[5mC]*k[5mC]) [compound 798706] | – | 1
798707 (antisense kG*k[5mC]*kT*d[5mC]*dG*dG*d[5mC]*dT*dG*dT*d[5mC]*d[5mC]*dG*kT*k[5mC]*kG) [compound 798707] | – | 74
798708 (antisense k[5mC]*kG*k[5mC]*dT*d[5mC]*dG*dG*d[5mC]*dT*dG*dT*d[5mC]*d[5mC]*kG*kT*k[5mC]) [compound 798708] | – | 45

Substance | % Inhibition [%] | % inhibition of SMAD7 mRNA expression [%]
798709 (antisense kT*kG*k[5mC]*dG*d[5mC]*dT*d[5mC]*dG*dG*d[5mC]*dT*dG*dT*k[5mC]*k[5mC]*kG) [compound 798709] | – | 2
798710 (antisense k[5mC]*k[5mC]*k[5mC]*d[5mC]*dA*dT*dG*d[5mC]*dG*d[5mC]*dT*d[5mC]*dG*kG*k[5mC]*kT) [compound 798710] | – | 54
798711 (antisense k[5mC]*kG*kG*d[5mC]*d[5mC]*d[5mC]*d[5mC]*dA*dT*dG*d[5mC]*dG*d[5mC]*kT*k[5mC]*kG) [compound 798711] | – | 59
798712 (antisense kG*k[5mC]*k[5mC]*dA*d[5mC]*d[5mC]*dG*dG*d[5mC]*d[5mC]*d[5mC]*d[5mC]*dA*kT*kG*k[5mC]) [compound 798712] | – | 6
798713 (antisense kG*k[5mC]*k[5mC]*dG*d[5mC]*d[5mC]*dA*d[5mC]*d[5mC]*dG*dG*d[5mC]*d[5mC]*k[5mC]*k[5mC]*kA) [compound 798713] | 45 | –
798714 (antisense kG*kG*k[5mC]*d[5mC]*dG*d[5mC]*d[5mC]*dG*d[5mC]*d[5mC]*dA*d[5mC]*d[5mC]*kG*kG*k[5mC]) [compound 798714] | 0 | –
798715 (antisense kG*k[5mC]*k[5mC]*d[5mC]*dG*dG*dG*d[5mC]*d[5mC]*dG*d[5mC]*d[5mC]*dG*k[5mC]*k[5mC]*kA) [compound 798715] | 0 | –
798716 (antisense k[5mC]*k[5mC]*kT*dG*d[5mC]*d[5mC]*d[5mC]*dG*dG*dG*d[5mC]*d[5mC]*dG*k[5mC]*k[5mC]*kG) [compound 798716] | 0 | –
798717 (antisense kA*kG*k[5mC]*d[5mC]*d[5mC]*dT*dG*d[5mC]*d[5mC]*d[5mC]*dG*dG*dG*k[5mC]*k[5mC]*kG) [compound 798717] | 18 | –
798718 (antisense kA*kT*k[5mC]*d[5mC]*dA*dG*d[5mC]*d[5mC]*d[5mC]*dT*dG*d[5mC]*d[5mC]*k[5mC]*kG*kG) [compound 798718] | 37 | –
798719 (antisense kA*kG*k[5mC]*dA*dT*d[5mC]*d[5mC]*dA*dG*d[5mC]*d[5mC]*d[5mC]*dT*kG*k[5mC]*k[5mC]) [compound 798719] | 34 | –
798720 (antisense kG*kG*k[5mC]*dA*dG*d[5mC]*dA*dT*d[5mC]*d[5mC]*dA*dG*d[5mC]*k[5mC]*k[5mC]*kT) [compound 798720] | 25 | –
798721 (antisense kG*k[5mC]*k[5mC]*d[5mC]*dA*dG*dG*d[5mC]*dA*dG*d[5mC]*dA*dT*k[5mC]*k[5mC]*kA) [compound 798721] | 41 | –
798722 (antisense k[5mC]*kT*kT*dG*d[5mC]*d[5mC]*d[5mC]*dA*dG*dG*d[5mC]*dA*dG*k[5mC]*kA*kT) [compound 798722] | 0 | –
798723 (antisense k[5mC]*kG*k[5mC]*d[5mC]*dT*dT*dG*d[5mC]*d[5mC]*d[5mC]*dA*dG*dG*k[5mC]*kA*kG) [compound 798723] | – | 0
798724 (antisense k[5mC]*kA*k[5mC]*d[5mC]*dG*d[5mC]*d[5mC]*dT*dT*dG*d[5mC]*d[5mC]*d[5mC]*kA*kG*kG) [compound 798724] | – | 19
798725 (antisense kT*k[5mC]*kG*d[5mC]*dA*d[5mC]*d[5mC]*dG*d[5mC]*d[5mC]*dT*dT*dG*k[5mC]*k[5mC]*k[5mC]) [compound 798725] | – | 29
798726 (antisense k[5mC]*kA*k[5mC]*d[5mC]*dT*d[5mC]*dG*d[5mC]*dA*d[5mC]*d[5mC]*dG*d[5mC]*k[5mC]*kT*kT) [compound 798726] | – | 7
798727 (antisense kT*kG*kG*d[5mC]*dA*d[5mC]*d[5mC]*dT*d[5mC]*dG*d[5mC]*dA*d[5mC]*k[5mC]*kG*k[5mC]) [compound 798727] | – | 51
798728 (antisense k[5mC]*kT*kT*dT*dG*dG*d[5mC]*dA*d[5mC]*d[5mC]*dT*d[5mC]*dG*k[5mC]*kA*k[5mC]) [compound 798728] | – | 41
798729 (antisense kG*kA*k[5mC]*d[5mC]*dT*dT*dT*dG*dG*d[5mC]*dA*d[5mC]*d[5mC]*kT*k[5mC]*kG) [compound 798729] | – | 51
798730 (antisense kG*kG*kT*dG*dA*d[5mC]*d[5mC]*dT*dT*dT*dG*dG*d[5mC]*kA*k[5mC]*k[5mC]) [compound 798730] | – | 0
798731 (antisense kG*kG*kT*dG*dG*dT*dG*dA*d[5mC]*d[5mC]*dT*dT*dT*kG*kG*k[5mC]) [compound 798731] | – | 43
798732 (antisense kG*kG*kA*dT*dG*dG*dT*dG*dG*dT*dG*dA*d[5mC]*k[5mC]*kT*kT) [compound 798732] | – | 51
